# Reference: the supplement of paper PMC7600603
# Key:
# [1] = test system: DLD1 NRF2-GOF; experiment: drug sensitivity score (DSS) cytotoxicity (DSS score); higher = more toxic; extreme values may be limits of the assay; details: 72 h; CellTox Green cytotoxicity
# In short: (§1)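 In 384-well plates, isogenic DLD1 cells with NRF2 wild-type or CRISPR-edited status, grown in DMEM with 10% FBS, received library compounds at 5 concentrations spanning a 10,000-fold range. At 72 h, CellTox Green signals were read on a Pherastar FS reader and scaled between vehicle wells and 100-μM positive-control wells. Cytotoxicity endpoints, TC50 and a drug sensitivity score based on normalised area under the curve, came from logistic dose-response fits.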
# [2] = test system: DLD1 NRF2-WT; experiment: as above; details: 72 h; CellTox Green cytotoxicity
# In short: as §1
# [3] = test system: DLD1 NRF2-WT; details: 72 h; CellTiter-Glo viability
# In short: (§2)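 In 384-well plates, library compounds were applied at 5 concentrations spanning a 10,000-fold range to isogenic DLD1 colorectal cancer cells, NRF2 wild-type or CRISPR gain-of-function, maintained in DMEM with 10% FBS. A Pherastar FS reader recorded CellTiter-Glo signal at 72 h, with normalisation to vehicle wells and 100-μM positive-control wells. Curves were fitted with a four-parameter logistic model. EC50 and drug sensitivity score, a normalised area under the curve, came from those curves.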
# [4] = test system: DLD1 NRF2-WT; experiment: drug sensitivity score (DSS) viability (DSS score); higher = more sensitive; extreme values may be limits of the assay; details: 72 h; CellTiter-Glo viability
# In short: as §2
# [5] = test system: DLD1 NRF2-GOF; experiment: TC50 cytotoxicity; higher = less toxic; details: 72 h; CellTox Green cytotoxicity
# In short: as §1
# [6] = test system: DLD1 NRF2-WT; experiment: TC50 cytotoxicity; higher = less toxic; details: 72 h; CellTox Green cytotoxicity
# In short: as §1
SMILES,drug sensitivity score [1],drug sensitivity score [2],EC50 viability [3] [nM],drug sensitivity score [4],TC50 cytotoxicity [5] [nM],TC50 cytotoxicity [6] [nM]
CC(C)(C)c1cc(NC(=O)Nc2ccc(Oc3ccnc4[nH]c(=O)cnc34)cc2F)n(-c2ccccc2)n1,0,1.1,3110,9.8,> 25000,> 25000
C[C@@H](Oc1cc(-n2cnc3ccc(CN4CCN(C)CC4)cc32)sc1C(N)=O)c1ccccc1C(F)(F)F,8,2.4,3.3,33.6,> 10000,> 10000
C[C@@H]1CN(CC(=O)Nc2ccc3c(c2)Cc2cccc(-c4cc(=O)cc(N5CCOCC5)o4)c2S3)C[C@H](C)O1,0,0,> 25000,0,> 25000,> 25000
C[C@H]1C[C@@H](n2c(Nc3ccc(OC(F)(F)F)cc3)nc3cc(CCC(=O)O)ccc32)CC(C)(C)C1,0,0,> 10000,0.3,> 10000,> 10000
Cc1cccc(CC(=O)N2CCc3c2ccc(-c2cn(C)c4ncnc(N)c24)c3F)n1,0,0,808,2.5,> 2500,> 2500
N#Cc1ccc(COC[C@H]2O[C@@H](n3c(NCc4ccc(Cl)c(Cl)c4)nc4c(N)ncnc43)[C@H](O)[C@@H]2O)cc1,0,0,,3.2,> 10000,> 10000
O=C(Nc1ccc2[nH]nc(-c3ccncc3)c2c1)[C@@H]1CCN(CC(=O)N2CCN(c3ccc(-c4ncccn4)cc3)CC2)C1,0,0,688,6.6,> 10000,> 10000
COc1cc(OC2CCN(C)CC2)ccc1Nc1ncc2c(n1)n(C1CCCC1)c(=O)n2C [AZ 3146],1.6,2.5,1250,8,> 10000,1580
O=C(Nc1cc(Oc2cc(F)c(NC(=O)C3(C(=O)Nc4ccc(F)cc4)CC3)cc2F)ccn1)C1CC1 [Altiratinib],0.2,0.6,3430,5.1,> 10000,> 10000
CC(C)c1c(C(=O)Nc2ccccc2)c(-c2ccccc2)c(-c2ccc(F)cc2)n1CC[C@@H](O)C[C@@H](O)CC(=O)O [Atorvastatin],,,3740,2.5,,
CC(=O)OC[C@H]1O[C@@H]([S-])[C@H](OC(C)=O)[C@@H](OC(C)=O)[C@@H]1OC(C)=O.CCP(CC)CC.[Au+] [Auranofin],0,2.3,622,5.5,> 2500,818
CNC(=O)c1ccccc1Sc1ccc2c(/C=C/c3ccccn3)n[nH]c2c1 [Axitinib],0,0.3,3390,2.4,> 10000,> 10000
CC[C@@H]1C(=O)N(C)c2cnc(Nc3ccc(C(=O)NC4CCN(C)CC4)cc3OC)nc2N1C1CCCC1 [BI 2536],2.3,3.1,5.2,21.8,,188
COc1c(C)cnc(Cn2cnc3c(Cl)nc(N)nc32)c1C [BIIB021],0,0,149,20.6,> 10000,> 10000
O=C(c1ccc(F)c(F)c1Nc1ccc(I)cc1F)N1CC(O)([C@@H]2CCCCN2)C1 [Cobimetinib],,,207,3,,
C[C@@H](Oc1cc(-c2cnn(C3CCNCC3)c2)cnc1N)c1c(Cl)ccc(F)c1Cl [Crizotinib],,,> 1000,0,,
Cc1cc(OCc2nnc(SC3CCCC3)n2-c2cccnc2)ccc1-c1ccc(S(C)(=O)=O)cc1 [NMS-873],,,273,5.5,,
Cn1c(Nc2ccc(C(F)(F)F)cc2)nc2cc(Oc3ccnc(-c4ncc(C(F)(F)F)[nH]4)c3)ccc21 [NVP-RAF265],,,191,3.2,,
